Legend:
BdcA [1] = target: T1, BdcA (Escherichia coli, UniProt P39333); assay: differential scanning fluorimetry (SYPRO Orange); type: binding; conditions: 20 mM HEPES pH 7.5; 8 µM protein, 160 µM ligand
T1 construct: full-length; N-terminal Thio6-His6 tag removed with TEV protease; expressed in E. coli BL21-Gold (DE3)
T1 sequence (P39333 1-237): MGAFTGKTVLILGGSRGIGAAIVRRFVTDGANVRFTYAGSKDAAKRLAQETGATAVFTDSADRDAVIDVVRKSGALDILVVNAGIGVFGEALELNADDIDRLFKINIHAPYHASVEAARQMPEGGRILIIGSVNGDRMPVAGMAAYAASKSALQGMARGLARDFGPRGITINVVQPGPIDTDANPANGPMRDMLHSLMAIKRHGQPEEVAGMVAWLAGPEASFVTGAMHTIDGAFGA
Text: differential scanning fluorimetry (SYPRO Orange) on BdcA

BdcA [2] = target: T1, BdcA; assay: isothermal titration calorimetry; type: binding
Text: isothermal titration calorimetry on BdcA

[3] = target: the molecule itself; assay: SEC; Superdex 75 26/60, 20 mM Tris pH 7.5, 100 mM NaCl, 0.5 mM TCEP; elution volume compared with MW standards (158, 44, 17 kDa)

Molecule	ΔTm (°C) (BdcA [1])	Kd (BdcA [2]) [µM]	stoichiometry N [3]
NC(=O)C1=CN([C@@H]2O[C@H](COP(=O)(O)OP(=O)(O)OC[C@H]3O[C@@H](n4cnc5c(N)ncnc54)[C@H](OP(=O)(O)O)[C@@H]3O)[C@@H](O)[C@H]2O)C=CC1 [NADPH]	3.1	25.9 ± 4.1	–
NC(=O)c1ccc[n+]([C@@H]2O[C@H](COP(=O)(O)OP(=O)(O)OC[C@H]3O[C@@H](n4cnc5c(N)ncnc54)[C@H](OP(=O)(O)O)[C@@H]3O)[C@@H](O)[C@H]2O)c1 [NADP]	1.0	–	–
BdcA (enzyme, E. coli, UniProt P39333 1-237, looked up, BdcA (YjgI), short-chain dehydrogenase/reductase of E. coli, full-length bdcA gene in the RP1B vector; monomer MW 24.9 kDa as printed; Tag removed with TEV protease; Homodimer in the crystal and in solution; also called YjgI; BcdA; source: E. coli BL21-Gold (DE3), purified (HisTrap, TEV cleavage, Ni-NTA, SEC); not shown: Thio6-His6, N-terminal, cleaved) MGAFTGKTVLILGGSRGIGAAIVRRFVTDGANVRFTYAGSKDAAKRLAQETGATAVFTDSADRDAVIDVVRKSGALDILVVNAGIGVFGEALELNADDIDRLFKINIHAPYHASVEAARQMPEGGRILIIGSVNGDRMPVAGMAAYAASKSALQGMARGLARDFGPRGITINVVQPGPIDTDANPANGPMRDMLHSLMAIKRHGQPEEVAGMVAWLAGPEASFVTGAMHTIDGAFGA	–	–	2
